Laboratory results: patent publication US4226879A, “Antibiotic composition” (Kyowa Hakko Kogyo Kabushiki Kaisha, priority 1976, dated 1980)
≈ marks a conversion by molar mass, not a printed value.

Experiments:
[1] = test system: Pseudomonas aerginosa P-3; assay: MIC, agar dilution method; assay type: cell-based; conditions: P3, pH 7.0, 37° C., 18 hours
[2] = test system: Candida albicans; assay: MIC, agar dilution method; assay type: cell-based; conditions: pH 6.8, 27° C. 72 hours
[3] = test system: Nocardia asteroides; assay: MIC, agar dilution method; assay type: cell-based
[4] = test system: Cryptococcus neoformans; assay: MIC, agar dilution method; assay type: cell-based; conditions: pH 6.8, 27° C. 72 hours
[5] = test system: S. aureus FS-1277 (penicillin-resistant); assay: MIC, agar dilution method; assay type: cell-based; conditions: Staphylococcus aureus; pH 7.0, 37° C., 18 hours
[6] = test system: mice; conditions: mouse, in vivo, 450 mg/kg
[7] = in vivo; conditions: mouse, ip
[8] = test system: Fusarium oxysporum; assay: MIC, agar dilution method; assay type: cell-based; conditions: pH 6.8, 27° C. 72 hours
[9] = test system: Aerobacter aerogenes IAM 1183; assay: MIC, agar dilution method; assay type: cell-based; conditions: Klebsiella aerogenes, IAM1183; pH 7.0, 37° C., 18 hours
[10] = test system: B. subtilis NRRL B-558; assay: MIC, agar dilution method; assay type: cell-based; conditions: Bacillus subtilis, NRRLB558; pH 7.0, 37° C., 18 hours
[11] = test system: Eimeria tenella K-2; assay: anticoccidial test in chicks (Example 4); conditions: for Caecal lession (numbers of chicks), +: grade + (light); for Caecal lession (numbers of chicks), + / Caecal lession (numbers of chicks), ++ / Caecal lession (numbers of chicks), +++ / Caecal lession (numbers of chicks), -: groups of 10 chicks; for Caecal lession (numbers of chicks), ++: grade ++ (middle); for Caecal lession (numbers of chicks), +++: grade +++ (heavy); for Caecal lession (numbers of chicks), -: grade - (not infected)
[12] = test system: Corynebacterium paurometabolum; assay: MIC, agar dilution method; assay type: cell-based; conditions: Tsukamurella paurometabola; pH 7.0, 37° C., 18 hours
[13] = test system: Micrococcus flavus 16; assay: MIC, agar dilution method; assay type: cell-based; conditions: pH 7.0, 37° C., 18 hours
[14] = test system: poultry; assay: side effects in poultry; assay type: in vivo, poultry such as chickens; conditions: pharmaceutical composition or assorted diet, chickens, turkeys
[15] = test system: S. aureus FDA 209P JC-1; assay: MIC, agar dilution method; assay type: cell-based; conditions: Staphylococcus aureus, FDA209P; pH 7.0, 37° C., 18 hours
[16] = test system: Trichophyton mentagrophytes; assay: MIC, agar dilution method; assay type: cell-based; conditions: pH 6.8, 27° C. 72 hours
[17] = test system: Sacchromyces cerevisiae; assay: MIC, agar dilution method; assay type: cell-based; conditions: pH 6.8, 27° C. 72 hours
[18] = solubility in various solvents; assay type: physicochemical
[19] = test system: Alternaria kikuchiana; assay: MIC, agar dilution method; assay type: cell-based; conditions: pH 6.8, 27° C. 72 hours
[20] = test system: Gram-negative bacteria; assay: growth inhibition, agar dilution method; assay type: cell-based; conditions: at concentration below 100 mcg/ml
Protocol: (§1) Table 1 indicates the antibacterial and antifungal activity of AM-1042 as minimum inhibitory concentration (mcg/ml) determined by the agar dilution method.
(§2) *Peptone 0.5%; meat extract 0.5%; agar 1.2% (pH 7.0), 37° C., 18

[21] = test system: fungi; assay: antifungal activity, agar dilution method; assay type: cell-based; conditions: at a concentration below 100 mcg/ml
Description: as §1
**Potato extract containing glucose 1.0% and agar 1.2% (pH 6.8),

[22] = test system: Salmonella typhimurium; assay: MIC, agar dilution method; assay type: cell-based; conditions: Salmonella enterica, pH 7.0, 37° C., 18 hours
[23] = test system: Proteus vulgaris IFO 3163; assay: MIC, agar dilution method; assay type: cell-based; conditions: IFO3163, pH 7.0, 37° C., 18 hours
[24] = test system: B. anthracis; assay: microbe, parasite or virus in culture; assay type: cell-based; conditions: Bacillus anthracis, 18 h, pH 7
[25] = test system: Eimeria maxima; assay: anticoccidial activity; assay type: in vivo
[26] = test system: B. megaterium APF; assay: MIC, agar dilution method; assay type: cell-based; conditions: Priestia megaterium; pH 7.0, 37° C., 18 hours
[27] = test system: Escherchia coli NIHJ; assay: MIC, agar dilution method; assay type: cell-based; conditions: pH 7.0, 37° C., 18 hours
[28] = test system: Sclerotinia cinerea; assay: MIC, agar dilution method; assay type: cell-based; conditions: pH 6.8, 27° C. 72 hours
[29] = test system: Mycobacterium smegmatis ATCC 607; assay: MIC, agar dilution method; assay type: cell-based; conditions: Mycolicibacterium smegmatis, ATCC607; pH 7.0, 37° C., 18 hours
[30] = test system: S. aureus KB-64 (tetracycline & erythromycin-resistant); assay: MIC, agar dilution method; assay type: cell-based; conditions: Staphylococcus aureus; pH 7.0, 37° C., 18 hours
[31] = test system: Eimeria acervulina; assay: anticoccidial activity; assay type: in vivo
[32] = test system: Eimeria tenella; assay: anticoccidial activity; assay type: in vivo
[33] = test system: E. coli B; assay: MIC, agar dilution method; assay type: cell-based; conditions: Escherichia coli; pH 7.0, 37° C., 18 hours
Protocol: as §1, §2

[34] = test system: Shigella sonnei E-33; assay: MIC, agar dilution method; assay type: cell-based; conditions: E33, pH 7.0, 37° C., 18 hours
Protocol: as §1, §2

[35] = test system: B. agri; assay: MIC, agar dilution method; assay type: cell-based; conditions: pH 7.0, 37° C., 18 hours
Protocol: as §1, §2

[36] = test system: S. albus; assay: MIC, agar dilution method; assay type: cell-based; conditions: pH 7.0, 37° C., 18 hours
Protocol: as §1, §2

O=C(/C=C/C=C/C=C/C1CCCCC1)NC1=CC(O)(/C=C/C=C/C=C/C(=O)NC2=C(O)CCC2=O)C2OC2C1=O (centres unmarked) [AM-1042]
MIC [1]: > 100 µg/mL
MIC [2]: > 100 µg/mL
activity upon Nocarida asteroides [3]: active
MIC ([3]; Nocardia asteroides, pH 7.0, 37° C., 18 hours): 1.56 µg/mL (≈ 2.85 µM)
MIC [4]: > 100 µg/mL
MIC [5]: 6.2 µg/mL (≈ 11.3 µM)
side effect on mice [6]: no side effect
LD50 [7]: 48.5 mg/kg
MIC [8]: > 100 µg/mL
MIC [9]: 100 µg/mL (≈ 183 µM)
MIC [10]: > 100 µg/mL
Survival ratio ([11]; 0.00375 % in diet): 90%
Survival ratio ([11]; 0.005 % in diet): 90%
Survival ratio ([11]; 0.0075 % in diet): 100%
Survival ratio ([11]; 0.01 % in diet): 100%
Survival ratio ([11]; 0.015 % in diet): 100%
Survival ratio ([11]; 0.02 % in diet): 100%
Survival ratio ([11]; 0.03 % in diet): 100%
Caecal lession (numbers of chicks), + ([11]; 0.00375 % in diet): 1 numbers of chicks
Caecal lession (numbers of chicks), + ([11]; 0.005 % in diet): 3 numbers of chicks
Caecal lession (numbers of chicks), + ([11]; 0.0075 % in diet): 5 numbers of chicks
Caecal lession (numbers of chicks), + ([11]; 0.01 % in diet): 2 numbers of chicks
Caecal lession (numbers of chicks), ++ ([11]; 0.00375 % in diet): 4 numbers of chicks
Caecal lession (numbers of chicks), ++ ([11]; 0.005 % in diet): 4 numbers of chicks
Caecal lession (numbers of chicks), ++ ([11]; 0.0075 % in diet): 2 numbers of chicks
Caecal lession (numbers of chicks), +++ ([11]; 0.00375 % in diet): 5 numbers of chicks
Caecal lession (numbers of chicks), +++ ([11]; 0.005 % in diet): 3 numbers of chicks
Caecal lession (numbers of chicks), - ([11]; 0.0075 % in diet): 3 numbers of chicks
Caecal lession (numbers of chicks), - ([11]; 0.01 % in diet): 8 numbers of chicks
Caecal lession (numbers of chicks), - ([11]; 0.015 % in diet): 10 numbers of chicks
Caecal lession (numbers of chicks), - ([11]; 0.02 % in diet): 10 numbers of chicks
Caecal lession (numbers of chicks), - ([11]; 0.03 % in diet): 10 numbers of chicks
MIC [12]: 1.56 µg/mL (≈ 2.85 µM)
MIC [13]: 1.5 µg/mL (≈ 2.74 µM)
side effects in poultry [14]: without any side effects
MIC [15]: 0.7 µg/mL (≈ 1.28 µM)
MIC [16]: 25 µg/mL (≈ 45.7 µM)
MIC [17]: > 100 µg/mL
solubility ([18]; in acetone): Soluble
solubility ([18]; in chloroform): Soluble
solubility ([18]; in dimethylformamide): Easily soluble
solubility ([18]; in dimethylsulfoxide): Easily soluble
solubility ([18]; in ethanol): Soluble
solubility ([18]; in ethyl acetate): Soluble
solubility ([18]; in fat): soluble in fat
solubility ([18]; in methanol): Soluble
solubility ([18]; in n-hexane): Insoluble
solubility ([18]; in petroleum ether): Insoluble
solubility ([18]; in water): Insoluble
MIC [19]: > 100 µg/mL
effect on Gram-negative bacteria [20]: no significant effect
activity on fungi [21]: no significant activity
MIC [22]: > 100 µg/mL
MIC [23]: > 100 µg/mL
MIC [24]: 12.5 µg/mL (≈ 22.9 µM)
activity upon coccidiosis [25]: significantly active
MIC [26]: 6.2 µg/mL (≈ 11.3 µM)
MIC [27]: 100 µg/mL (≈ 183 µM)
MIC [28]: 100 µg/mL (≈ 183 µM)
MIC [29]: > 100 µg/mL
MIC [30]: 6.2 µg/mL (≈ 11.3 µM)
activity upon coccidiosis [31]: significantly active
activity upon coccidiosis ([32]; Eimeria tenella, also when resistant to amprolium hydrochloride, clopidol, robenidine hydrochloride): significantly active
reducing mortality of chicks ([32]; chicks infected with Eimeria tenella): effective in reducing mortality of chicks
MIC [33]: > 100 µg/mL
MIC [34]: > 100 µg/mL
MIC [35]: 12.5 µg/mL (≈ 22.9 µM)
MIC [36]: 12.5 µg/mL (≈ 22.9 µM)
